Assay results as given in patent US7378079B2, “Agents for imaging and diagnostic methods using them” (NST Neurosurvival Technologies Ltd., priority 2002, dated 2008).
“Also recorded” adds a separate entry of the source.

Test system: B16 melanoma
Assay: Imaging of tumor cell death in B16 melanoma in vivo, fluorescent microscopy
Design: species or system c57/black mice
Conditions: BiCNU 35 mg/Kg; compound i.v. 1-3 mg/animal after 24 h; tumors removed 2 h later
Procedure: Mice bearing B16-melanoma were treated with chemotherapy (BiCNU 35 mg/Kg, one dose), and then injected intravenously with NST920B. Animals were sacrificed two hours later, and the tumor was removed and subjected to fluorescent histopathological assessment, to identify binding of NST920B. Shown is fluorescent microscopic image of a section of the tumor.
Melanoma tumors were induced in c57/black mice by subcutaneous injection of B16-F10 cell line (ATCC CRL-6475). The cell line was maintained in culture in Dulbecco's modified Eagle's medium (DMEM), supplemented with 4 mM of L-glutamine; 100 units/ml of penicillin; 100 μg/ml of streptomycin; 12.5 units/ml of nystatin and 10% of fetal calf serum (FCS). For tumor induction, 10^5 cells in a volume of 100 μl were injected […] to 8 week-old male mice. 15 days later, when tumor diameter reached 5-6 mm, the mice were treated with chemotherapy (BiCNU, 1,3-bis(2-chloroethyl)-1-nitrosourea, at a single dose of 35 mg/Kg). Twenty-four hours after chemotherapy, the mice were injected intravenously with the compounds of the invention NST920B, NST930 and Re-NST904 (1-3 mg/animal). Two hours later, tumors were removed, frozen in liquid nitrogen, and subjected to cryosection. Evaluation of fluorescent signal was performed using fluorescent microscope.

CN(C)c1cccc2c(S(=O)(=O)N(CCOCCN(CC(=O)O)S(=O)(=O)c3cccc4c(N(C)C)cccc34)CC(=O)O)cccc12 [NST920B]
uptake by viable, non-apoptotic tumor cells, B16 melanoma: did not manifest such uptake
uptake into apoptotic tumor cells, B16 melanoma: Uptake of NST920B into apoptotic cells is demonstrated; also recorded: selective uptake
